Assay results: patent publication US7507860B2 (Pfizer Inc., priority 2004, dated 2009)
Residue numbers refer to the chain shown, from its start. Read-outs that look alike come from different tables or passages of the source.

Columns and labels:
[1] = target: T1, androgen receptor (Homo sapiens, UniProt P10275); assay: AR antagonist cell assay (MDA-MB453-MMTV clone 54-19 luciferase reporter, 100 pM DHT); type: cell-based
T1 sequence (P10275 1-920 Q868H): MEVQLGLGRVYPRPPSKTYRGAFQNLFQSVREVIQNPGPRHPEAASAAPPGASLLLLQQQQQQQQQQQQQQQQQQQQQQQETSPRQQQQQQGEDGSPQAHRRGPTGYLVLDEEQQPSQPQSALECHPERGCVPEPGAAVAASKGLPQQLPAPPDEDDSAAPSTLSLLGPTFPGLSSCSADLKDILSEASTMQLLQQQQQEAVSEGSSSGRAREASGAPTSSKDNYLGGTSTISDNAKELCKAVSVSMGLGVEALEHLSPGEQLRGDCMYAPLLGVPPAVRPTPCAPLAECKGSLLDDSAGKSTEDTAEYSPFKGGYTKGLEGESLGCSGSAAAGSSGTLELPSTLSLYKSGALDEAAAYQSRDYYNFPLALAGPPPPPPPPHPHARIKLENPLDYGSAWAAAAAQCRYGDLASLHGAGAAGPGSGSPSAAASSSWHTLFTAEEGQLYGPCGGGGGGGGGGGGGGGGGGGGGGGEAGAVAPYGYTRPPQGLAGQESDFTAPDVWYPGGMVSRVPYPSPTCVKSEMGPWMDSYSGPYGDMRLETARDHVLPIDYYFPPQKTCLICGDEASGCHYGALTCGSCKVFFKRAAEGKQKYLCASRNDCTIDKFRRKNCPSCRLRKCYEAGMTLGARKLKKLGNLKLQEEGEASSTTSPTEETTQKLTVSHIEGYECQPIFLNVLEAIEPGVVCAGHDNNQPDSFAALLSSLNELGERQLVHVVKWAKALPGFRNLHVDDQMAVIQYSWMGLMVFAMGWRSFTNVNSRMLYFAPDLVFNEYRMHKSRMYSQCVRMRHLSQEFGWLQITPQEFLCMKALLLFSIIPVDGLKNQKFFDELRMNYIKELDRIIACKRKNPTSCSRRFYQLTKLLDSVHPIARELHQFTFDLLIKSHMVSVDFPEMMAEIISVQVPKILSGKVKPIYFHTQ
Method in brief: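 MDA-MB453 cells stably carrying an MMTV-ARE firefly luciferase reporter were plated overnight at 10,000/well in phenol-red-free, charcoal-stripped serum medium. Cells were stimulated with 100 pM DHT (final) for 17 hr at 37 °C, and AR antagonism was read as luciferase signal; values are means of multiple tests.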

[2] = target: T2, human androgen receptor (hAR) (Homo sapiens, UniProt P10275); assay: Competitive binding analysis on baculovirus/Sf9 generated hAR extracts with 3H-DHT tracer; settings: hAR extract, 1 nM 3H-DHT, one hour at 4° C, mean of multiple tests
T2 construct: made in house; host or cells: baculovirus/Sf9 insect cells (crude extract)
T2 sequence (P10275 1-920): T1 sequence (P10275 1-920 Q868H) with H868Q
Method in brief: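 Baculovirus/Sf9-expressed hAR extract incubated with hydroxylapatite, 1 nM 3H-DHT and decreasing compound concentrations for 1 h at 4 °C, then washed three times to remove unbound tracer. Bound 3H-DHT compared with no-competitor maximum; affinity given as concentration inhibiting half of maximum binding, mean of multiple tests.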

[3] = MDA-MB453-MMTV clone 54-19, inhibition of 100 pM DHT induction, 17 hr; mean of multiple tests; read-out: AR Cell IC50

Structure (SMILES) | IC50 [1, 3] | IC50 ([2]; read-out: AR Binding IC50) | IC50 ([2]; AR Binding IC50 (nM)) | IC50 ([1]; read-out: AR Cell IC50; MDA-MB453-MMTV clone 54-19, inhibition of 100 pM DHT induction, 17 hr; mean of multiple tests)
CCC[C@H](Oc1ccc(C#N)c(C(F)(F)F)c1)C(=O)NCCc1c[nH]c2ccccc12 [Example 108, (S)-2-(4-Cyano-3-trifluoromethyl-phenoxy)-pentanoic acid [2-(1H-indol-3-yl)ethyl]-amide] | < 0.32 nM | 21 nM |  | 
CCCC(Oc1ccc(C#N)c(C(F)(F)F)c1)C(=O)NC(C)Cc1ccsc1 (stereo not shown) [Example 18, 2-(4-Cyano-3-trifluoromethyl-phenoxy)-pentanoic acid (1-methyl-2-thiophen-3-ylethyl)-amide] | 815 nM | 222 nM |  | 
CC(C)CC(Oc1ccc(C#N)c(C(F)(F)F)c1)C(=O)NC(C)C (stereo not shown) [Example 2, 2-(4-Cyano-3-trifluoromethyl-phenoxy)-4-methyl-pentanoic acid isopropylamide] | 142 nM | 64 nM |  | 
CC(C)C[C@@H](Oc1ccc(C#N)c(C(F)(F)F)c1)C(=O)NCc1ccccc1 [Example 94, (R)-2-(4-Cyano-3-trifluoromethyl-phenoxy)-4-methyl-pentanoic acid benzylamide] | 140 nM |  | 66 nM | 
CC(C)CC(Oc1ccc(C#N)c(C(F)(F)F)c1)C(=O)NC(C)c1cccnc1 (stereo not shown) [Example 15, 2-(4-Cyano-3-trifluoromethyl-phenoxy)-4-methyl-pentanoic acid (1-pyridin-3-ylethyl)-amide] | > 1000 nM | 309 nM |  | 
COc1ccccc1CNC(=O)C(CC(C)C)Oc1ccc(C#N)c(C(F)(F)F)c1 (stereo not shown) [Example 35, 2-(4-Cyano-3-trifluoromethyl-phenoxy)-4-methyl-pentanoic acid-2-methoxy-benzylamide] | 768 nM | 77 nM |  | 
CCCC(Oc1ccc(C#N)c(C(F)(F)F)c1)C(=O)NCc1ccc(C)cc1C (stereo not shown) [Example 45, 2-(4-Cyano-3-trifluoromethyl-phenoxy)-pentanoic acid-2,4-dimethyl-benzylamide] | > 1000 nM | 58 nM |  | 
CCC[C@H](Oc1ccc(C#N)c(Cl)c1)C(=O)NCc1ccccc1 [Example 104, (S)-2-(3-Chloro-4-cyano-phenoxy)-pentanoic acid benzylamide] |  | 241 nM |  | 7 nM
CCCC(Oc1ccc(C#N)c(C(F)(F)F)c1)C(=O)NC(C)c1ccc(OC)cc1 (stereo not shown) [Example 113, 2-(4-Cyano-3-trifluoromethyl-phenoxy)-pentanoic acid [1-(4-methoxy-phenyl)-ethyl]-amide] | 681 nM | 654 nM |  | 
CC(C)CNC(=O)C(CC(C)C)Oc1ccc(C#N)c(C(F)(F)F)c1 (stereo not shown) [Example 8, 2-(4-Cyano-3-trifluoromethyl-phenoxy)-4-methyl-pentanoic acid isobutyl-amide] | 534 nM | 58 nM |  | 
CC(C)CC(Oc1ccc(C#N)c(C(F)(F)F)c1)C(=O)N[C@@H](C)c1ccc(O)cc1 (stereo in doubt) [Example 120, 2-(4-Cyano-3-trifluoromethyl-phenoxy)-4-methyl-pentanoic acid [1-(4-hydroxy-phenyl)-ethyl]-amide] | 44 nM | 98 nM |  | 
CCC[C@H](Oc1ccc(C#N)c(C(F)(F)F)c1)C(=O)NCc1cccc(C)c1 [Example 107, (S)-2-(4-Cyano-3-trifluoromethyl-phenoxy)-pentanoic acid-3-methyl-benzylamide] | < 0.32 nM | 93 nM |  | 
COc1ccc(CNC(=O)C(CC(C)C)Oc2ccc(C#N)c(C(F)(F)F)c2)cc1 (stereo not shown) [Example 73, 2-(4-Cyano-3-trifluoromethyl-phenoxy)-4-methyl-pentanoic acid-4-methoxy-benzylamide] | 428 nM | 92 nM |  | 
COc1ccc(CNC(=O)C(CC(C)C)Oc2ccc(C#N)c(C(F)(F)F)c2)cc1 (stereo not shown) [Example 39, 2-(4-Cyano-3-trifluoromethyl-phenoxy)-4-methyl-pentanoic acid-4-methoxy-benzylamide] | > 1000 nM | 42 nM |  | 
CCCC(Oc1ccc(C#N)c(C(F)(F)F)c1)C(=O)NCCc1cccc(OC)c1 (stereo not shown) [Example 64, 2-(4-Cyano-3-trifluoromethyl-phenoxy)-pentanoic acid-[2-(3-methoxy-phenyl)ethyl]-amide] | > 1000 nM | 220 nM |  | 
CC(C)CC(Oc1ccc(C#N)c(C(F)(F)F)c1)C(=O)NCc1ccc2c(c1)OCO2 (stereo not shown) [Example 24, 2-(4-Cyano-3-trifluoromethyl-phenoxy)-4-methyl-pentanoic acid (benzo[1,3]dioxol-5-yl-methyl)-amide] | 799 nM | 56 nM |  | 
CCCOCCCNC(=O)C(CC(C)C)Oc1ccc(C#N)c(C(F)(F)F)c1 (stereo not shown) [Example 85, 2-(4-Cyano-3-trifluoromethyl-phenoxy)-4-methyl-pentanoic acid (3-propoxy-propyl)-amide] | > 1000 nM | 117 nM |  | 
CC(C)CC(Oc1ccc(C#N)c(C(F)(F)F)c1)C(=O)NCc1ccc2nsnc2c1 (stereo not shown) [Example 26, 2-(4-Cyano-3-trifluoromethyl-phenoxy)-4-methyl-pentanoic acid (benzo[1,2,5]thiadiazol-5-yl-methyl)-amide] | > 1000 nM | 67 nM |  | 
CCN(CCOC)C(=O)C(CC(C)C)Oc1ccc(C#N)c(C(F)(F)F)c1 (stereo not shown) [Example 86, 2-(4-Cyano-3-trifluoromethyl-phenoxy)-4-methyl-pentanoic acid ethyl(2-methoxyethyl)-amide] | > 1000 nM | 25 nM |  | 
CC(C)CC(Oc1ccc(C#N)c(C(F)(F)F)c1)C(=O)NCC(c1ccccc1)N(C)C (stereo not shown) [Example 68, 2-(4-Cyano-3-trifluoromethyl-phenoxy)-4-methyl-pentanoic acid (2-dimethylamino-2-phenyl-ethyl)-amide] | > 1000 nM | 223 nM |  | 
CCCC(Oc1ccc(C#N)c(C(F)(F)F)c1)C(=O)NCC (stereo not shown) [Example 5, 2-(4-Cyano-3-trifluoromethyl-phenoxy)-pentanoic acid ethylamide] | > 1000 nM | 277 nM |  | 
Cc1ccccc1CNC(=O)C(CC(C)C)Oc1ccc(C#N)c(C(F)(F)F)c1 (stereo not shown) [Example 38, 2-(4-Cyano-3-trifluoromethyl-phenoxy)-4-methyl-pentanoic acid-2-methyl-benzylamide] | > 1000 nM | 15 nM |  | 
CC(C)CC(Oc1ccc(C#N)c(C(F)(F)F)c1)C(=O)NCc1ccc2c(c1)CCO2 (stereo not shown) [Example 25, 2-(4-Cyano-3-trifluoromethyl-phenoxy)-4-methyl-pentanoic acid (2,3-dihydro-benzofuran-5-yl-methyl)-amide] | 798 nM | 67 nM |  | 
